Where a name gives a salt, the structure may show the parent alone.
How the values were obtained:
Male NMRI mice = assay: phenylquinone-induced writhing in mice (analgesic efficacy); assay type: in vivo; conditions: 10 mg/kg i.v., phenylquinone i.p. 10 minutes after compound, writhing counted 5-20 minutes after phenylquinone
Protocol: The investigation into analgesic efficacy was performed by phenylquinone-induced writhing in mice (modified after: I. C. Hendershot, J. Forsaith, J. Pharmacol. Exp. There. 125, 237-240 (1959)). The corresponding literature description is hereby introduced as a reference and is deemed to be part of the disclosure.
Male NMRI mice weighing from 25 to 30 g were used for this purpose. Groups of 10 animals per substance dose received, 10 minutes after intravenous administration of the compounds tested, 0.3 ml/mouse of a 0.02% aqueous solution of phenylquinone (phenylbenzoquinone, Sigma, Deisenhofen; solution prepared with addition of 5% of ethanol and stored in a water bath at 45° C.) administered intraperitoneally. The animals were placed individually in observation cages. A push button counter was used to record the number of pain-induced stretching movements (writhing reactions=straightening of the torso with stretching of the rear extremities) for 5-20 minutes after phenylquinone administration. The control was provided by animals which received only physiological common salt solution.
The compounds were tested at the standard dosage of 10 mg/kg. Inhibition of the writhing reactions by a substance was calculated according to the following formula: [formula]
The in-depth investigation into analgesic efficacy was performed using phenylquinone-induced writhing in mice, as described above.

| SMILES | % inhibition of writhing reactions (Male NMRI mice) [%] | melting point [°C] |
| --- | --- | --- |
| COc1cccc(C2(O)CCC(NC(=O)c3nc4cc(C)c(C)cc4[nH]c3=O)CC2CN(C)C)c1 (centres unmarked) [Example 1, 6,7-dimethyl-3-oxo-3,4-dihydroquinoxaline 2-carboxylic acid [3′-(N,N-dimethylaminomethyl)-4′-hydroxy-4′-(m-methoxyphenyl)-cyclohexyl]amide hydrochloride] | 72 |  |
| COc1cccc(C2(O)CCC(NC(=O)c3nc4cc(Cl)c(Cl)cc4[nH]c3=O)CC2CN(C)C)c1 (centres unmarked) [Example 2, 6,7-dichloro-3-oxo-3,4-dihydroquinoxaline 2-carboxylic acid [3′-(N,N-dimethylaminomethyl)-4′-hydroxy-4′-(m-methoxyphenyl)-cyclohexyl]amide] | 55 |  |
| COc1cccc(C2(O)CCC(OC(=O)c3nc4cc(C)c(C)cc4[nH]c3=O)CC2CN(C)C)c1 (centres unmarked) [Example 3, 6,7-dimethyl-3-oxo-3,4-dihydroquinoxaline 2-carboxylic acid [3′-(N,N-dimethylaminomethyl)-4′-hydroxy-4′-(m-methoxyphenyl)-cyclohexyl] ester] | 90 |  |
| COc1cccc(C2(O)CCC(OC(=O)c3nc4cc(Cl)c(Cl)cc4[nH]c3=O)CC2CN(C)C)c1 (centres unmarked) [Example 4, 6,7-dichloro-3-oxo-3,4-dihydroquinoxaline 2-carboxylic acid [3′-(N,N-dimethylaminomethyl)-4′-hydroxy-4′-(m-methoxyphenyl)-cyclohexyl] ester] | 84 | 175 to 177 |

— patent publication US20040224954A1, “Substituted 1H-quinoxalin-2-one compounds and substituted 4-aryl- and 4-heteroarylcyclohexane compounds” (priority 2001, published 2004)
